Experimental data: US10626095B2, “Cyanotriazole compounds” (OTSUKA PHARMACEUTICAL CO., LTD., priority 2013, dated 2020)

These molecules were tested on NaCT-CHO (CHO cells stably expressing human NaCT) (assay: Assay of the citric acid cycle activation ([1,5-14C]-citric acid, diffusion of [14C]-CO2)). Details: 1 hour incubation at 37° C. with [1,5-14C]-citric acid.
Type: cell-based
Procedure, shortened: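 NaCT-CHO cells (pME-CHO empty-vector cells for non-specific counts) were incubated 1 h at 37 °C in Na+-containing HEPES-Tris pH 7.4 with compound plus an equal volume of 0.4 mM [1,5-14C]-citric acid solution. Residual cell radioactivity was counted, [14C]-CO2 diffusion was taken as (Total−R)/(Total−NS)×100%, and EC50 was derived by regression.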
Molecule `COc1ccccc1COc1cc(-c2nn[nH]c2C#N)cc(C(F)(F)F)c1` [Example 61, 5-[3-(2-methoxy-benzyloxy)-5-trifluoromethyl-phenyl]-3H-[1,2,3]triazole-4-carbonitrile] has an EC50 of 440 nM. `N#Cc1[nH]nnc1-c1cc(Cl)cc(CC2CC2)c1` [Example 1, 5-(3-chloro-5-cyclopropylmethyl-phenyl)-3H-[1,2,3]triazole-4-carbonitrile] was tested, and the EC50 was 500 nM. In the case of `CCC(OCc1ccc(C(F)(F)F)cc1)c1cccc(-c2nn[nH]c2C#N)n1` (centres unmarked) [Example 142, 5-{6-[1-(4-trifluoromethyl-benzyloxy)-propyl]-pyridin-2-yl}-3H-[1,2,3]triazole-4-carbonitrile], the EC50 is reported as 580 nM. Work on `N#Cc1[nH]nnc1-c1cccc(OCc2cc3ccccc3o2)c1` [Example 59, 5-[3-(benzofuran-2-ylmethoxy)-phenyl]-3H-[1,2,3]triazole-4-carbonitrile] yielded an EC50 of 500 nM. In the case of `N#Cc1[nH]nnc1-c1ccc(-c2cc(F)cc(C(F)(F)F)c2)s1` [Example 129, 5-[5-(3-fluoro-5-trifluoromethyl-phenyl)-thiophen-2-yl]-3H-[1,2,3]triazole-4-carbonitrile], the EC50 is reported as 440 nM. `N#Cc1[nH]nnc1-c1cccc(-c2cccc(C(F)(F)F)c2)n1` [Example 141, 5-[6-(3-trifluoromethyl-phenyl)-pyridin-2-yl]-3H-[1,2,3]triazole-4-carbonitrile] showed an EC50 of 710 nM. Work on `N#Cc1[nH]nnc1-c1cccc(COc2ccc(C(F)(F)F)cn2)c1` [Example 56, 5-[3-(5-trifluoromethyl-pyridin-2-yloxymethyl)-phenyl]-3H-[1,2,3]triazole-4-carbonitrile] yielded an EC50 of 730 nM. `N#Cc1[nH]nnc1-c1ccc(/C=C/c2cccc(C(F)(F)F)c2)s1` [Example 133, 5-{5-[(E)-2-(3-trifluoromethyl-phenyl)-vinyl]-thiophen-2-yl}-3H-[1,2,3]triazole-4-carbonitrile] showed an EC50 of 190 nM. Work on `N#Cc1[nH]nnc1-c1cscc1-c1cc(C(F)(F)F)cc(C(F)(F)F)c1` [Example 134, 5-[4-(3,5-bis-trifluoromethyl-phenyl)-thiophen-3-yl]-3H-[1,2,3]triazole-4-carbonitrile] yielded an EC50 of 85 nM. Molecule `N#Cc1[nH]nnc1-c1cc(Cl)cc(-c2ccc3c(c2)OC(F)(F)O3)c1` [Example 30, 5-[3-chloro-5-(2,2-difluoro-benzo[1,3]dioxol-5-yl)-phenyl]-3H-[1,2,3]triazole-4-carbonitrile] has an EC50 of 640 nM. `N#Cc1[nH]nnc1-c1cnc(/C=C/c2cccc(C(F)(F)F)c2)s1` [Example 112, 5-{2-[(E)-2-(3-trifluoromethyl-phenyl)-vinyl]-thiazol-5-yl}-3H-[1,2,3]triazole-4-carbonitrile] was tested, and the EC50 was 790 nM. For `N#Cc1[nH]nnc1-c1nc(-c2ccc(Cl)cc2)sc1C1CC1` [Example 105, 5-[2-(4-chloro-phenyl)-5-cyclopropyl-thiazol-4-yl]-3H-[1,2,3]triazole-4-carbonitrile], the EC50 was 1910 nM. `N#Cc1[nH]nnc1-c1nc(-c2cccc(Cl)c2)oc1C1CC1` [Example 121, 5-[2-(3-chloro-phenyl)-5-cyclopropyl-oxazol-4-yl]-3H-[1,2,3]triazole-4-carbonitrile] was tested, and the EC50 was 990 nM. `CCCc1sc(-c2ccc(Cl)cc2)nc1-c1nn[nH]c1C#N` [Example 103, 5-[2-(4-chloro-phenyl)-5-propyl-thiazol-4-yl]-3H-[1,2,3]triazole-4-carbonitrile] was tested, and the EC50 was 230 nM. Work on `CCOc1ccc(-c2ccc(C(F)(F)F)nc2)cc1-c1nn[nH]c1C#N` [Example 16, 5-[2-ethoxy-5-(6-trifluoromethyl-pyridin-3-yl)-phenyl]-3H-[1,2,3]triazole-4-carbonitrile] yielded an EC50 of 670 nM. Molecule `CN(c1ccc(Cl)cc1)c1nc(-c2nn[nH]c2C#N)cs1` [Example 83, 5-{2-[N-(4-chloro-phenyl)-N-methyl-amino]-thiazol-4-yl}-3H-[1,2,3]triazole-4-carbonitrile] has an EC50 of 1080 nM. `CCOc1ccc(/C=C/c2cccc(-c3nn[nH]c3C#N)c2)cc1` [Example 44, 5-{3-[(E)-2-(4-ethoxy-phenyl)-vinyl]-phenyl}-3H-[1,2,3]triazole-4-carbonitrile] was tested, and the EC50 was 690 nM.
